Reference: patent US6582351B1, “Imidazopyridinone derivatives and their use as phosphodiesterase inhibitors” (Fujisawa Pharmaceutical Co., Ltd., priority 1999, dated 2003)

First: COc1ccc(Cn2c(=O)n([C@H]3CC[C@H](O)CC3)c3ccc(C(=O)c4ccccc4)cc32)cc1Cl [Example 4(6), 5-Benzoyl-3-(3-chloro-4-methoxybenzyl)-1-(trans-4-hydroxycyclohexyl)-2,3-dihydro-1H-benzimidazol-2-one]
Second: COc1ccc(Cn2c(=O)n([C@H]3CC[C@H](O)CC3)c3ccc(C(N)=O)cc32)cc1Cl [Example 20, 5-carbamoyl-3-(3-chloro-4-methoxybenzyl)-1-(trans-4-hydroxycyclohexyl)-2,3-dihydro-1H-benzimidazol-2-one]
The melting point of the first is lower: 160.5 to 162 °C for the first, 291.5 to 292 °C for the second.

Compared with `COc1ccc(Cn2c(=O)n(C(C)(C)C)c3ccc(C(F)(F)F)cc32)cc1Cl` [Example 2(32), 1-(tert-Butyl)-3-(3-chloro-4-methoxybenzyl)-5-trifluoromethyl-2,3-dihydro-1H-benzimidazol-2-one], `COc1ccc(Cn2c(=O)n(C(C)C)c3ccc(C(F)(F)F)cc32)cc1Cl` [Example 2(35), 3-(3-Chloro-4-methoxybenzyl)-1-isopropyl-5-trifluoromethyl-2,3-dihydro-1H-benzimidazol-2-one] is higher in melting point: 130.5 to 131.5 °C for the first, 153.5 to 155 °C for the second.

First: CCOc1ccc(Cn2c(=O)n([C@H]3CC[C@H](O)CC3)c3ccc(C(F)(F)F)cc32)cc1Cl [Example 2(29), 3-(3-Chloro-4-ethoxybenzyl)-1-(trans-4-hydroxycyclohexyl)-5-trifluoromethyl-2,3-dihydro-1H-benzimidazol-2-one]
Second: COc1ccc(Cn2c(=O)n([C@H]3CC[C@H](O)CC3)c3ccc(C(F)(F)F)cc32)cc1Br [Example 2(31), 3-(3-Bromo-4-methoxybenzyl)-1-(trans-4-hydroxycyclohexyl)-5-trifluoromethyl-2,3-dihydro-1H-benzimidazol-2-one]
The melting point of the first is lower: 147.5 to 149 °C for the first, 182 to 182.5 °C for the second.

Compared with `O=c1n(Cc2ccc(Cl)c(Cl)c2)c2cc(C(F)(F)F)cnc2n1[C@H]1CC[C@H](O)CC1` [Example 19(3), 1-(3,4-Dichlorobenzyl)-3-(trans-4-hydroxycyclohexyl)-6-trifluoromethyl-2,3-dihydro-1H-imidazo[4,5-b]pyridin-2-one], `COc1ccc(Cn2c(=O)n([C@H]3CC[C@H](OC(C)=O)CC3)c3ncc(C(F)(F)F)cc32)cc1Cl` [Example 2(15), 3-(trans-4-Acetoxycyclohexyl)-1-(3-chloro-4-methoxybenzyl)-6-trifluoromethyl-2,3-dihydro-1H-imidazo[4,5-b]pyridin-2-one] is lower in melting point: 170 to 171.5 °C for the first, 165 to 166 °C for the second.

First: COc1ccc(Cn2c(=O)n([C@H]3CC[C@H](O)CC3)c3ccc(C)cc32)cc1OC [Example 19(4), 3-(3,4-Dimethoxybenzyl)-1-(trans-4-hydroxycyclohexyl)-5-methyl-2,3-dihydro-1H-benzimidazol-2-one]
Second: COc1ccc(Cn2c(=O)n([C@H]3CC[C@H](O)CC3)c3ccc(Cl)cc32)cc1OC [Example 2(9), 5-Chloro-3-(3,4-dimethoxybenzyl)-1-(trans-4-hydroxycyclohexyl)-2,3-dihydro-1H-benzimidazol-2-one]
The melting point of the first is higher: 174 to 175 °C for the first, 166 to 167 °C for the second.

First: COc1ccc(Cn2c(=O)n(C(C)(C)CO)c3ncc(C(F)(F)F)cc32)cc1Cl [Example 3, 1-(3-chloro-4-methoxybenzyl)-3-(1,1-dimethyl-2-hydroxyethyl)-6-trifluoromethyl-2,3-dihydro-1H-imidazo[4,5-b]pyridin-2-one]
Second: COc1ccc(Cn2c(=O)n(CCO)c3ccc(C(F)(F)F)cc32)cc1Cl [Example 4(7), 3-(3-Chloro-4-methoxybenzyl)-1-(2-hydroxyethyl)-5-trifluoromethyl-2,3-dihydro-1H-benzimidazol-2-one]
The melting point of the first is higher: 195 to 197 °C for the first, 106 to 107 °C for the second.

First: COC(=O)c1ccc2c(c1)n(Cc1ccc(OC)c(Cl)c1)c(=O)n2[C@H]1CC[C@H](O)CC1 [Example 2(27), 3-(3-Chloro-4-methoxybenzyl)-1-(trans-4-hydroxycyclohexyl)-5-methoxycarbonyl-2,3-dihydro-1H-benzimidazol-2-one]
Second: COC(=O)c1ccc2c(c1)n(Cc1ccc(OC)c(OC)c1)c(=O)n2[C@H]1CC[C@H](O)CC1 [Example 2(10), 3-(3,4-Dimethoxybenzyl)-1-(trans-4-hydroxycyclohexyl)-5-methoxycarbonyl-2,3-dihydro-1H-benzimidazol-2-one]
The melting point of the first is higher: 174 to 175 °C for the first, 148 to 149.5 °C for the second.

First: COc1ccc(Cn2c(=O)n([C@H]3CC[C@H](O)CC3)c3ccc([N+](=O)[O-])cc32)cc1Cl [Example 2(16), 3-(3-Chloro-4-methoxybenzyl)-1-(trans-4-hydroxycyclohexyl)-5-nitro-2,3-dihydro-1H-benzimidazol-2-one]
Second: COc1ccc(Cn2c(=O)n([C@H]3CC[C@H](O)CC3)c3ccc([N+](=O)[O-])cc32)cc1C#N [Example 2(97), 3-(3-Cyano-4-methoxybenzyl)-1-(trans-4-hydroxycyclohexyl)-5-nitro-2,3-dihydro-1H-benzimidazol-2-one]
The melting point of the first is higher: 142 to 142.5 °C for the first, 122 to 124 °C for the second.

First: COc1ccc(Cn2c(=O)n(C3CCOCC3)c3ccc(C(F)(F)F)cc32)cc1Cl [Example 2(34), 3-(3-Chloro-4-methoxybenzyl)-1-(tetrahydro-4H-pyran-4-yl)-5-trifluoromethyl-2,3-dihydro-1H-benzimidazol-2-one]
Second: COc1ccc(Cn2c(=O)n(C3CCCCC3)c3ccc(C(F)(F)F)cc32)cc1Cl [Example 2(37), 1-Cyclohexyl-3-(3-chloro-4-methoxybenzyl)-5-trifluoromethyl-2,3-dihydro-1H-benzimidazol-2-one]
The melting point of the first is higher: 175 to 176 °C for the first, 160 to 161 °C for the second.

First: COc1ccc(Cn2c(=O)n([C@H]3CC[C@H](N)CC3)c3ccc(C(F)(F)F)cc32)cc1Cl [Example 8(4), 1-(trans-4-Aminocyclohexyl)-3-(3-chloro-4-methoxybenzyl)-5-trifluoromethyl-2,3-dihydro-1H-benzimidazol-2-one]
Second: COc1ccc(Cn2c(=O)n([C@H]3CC[C@H](O)CC3)c3ccc(C#N)cc32)cc1OC [Example 2(5), 5-Cyano-3-(3,4-dimethoxybenzyl)-1-(trans-4-hydroxycyclohexyl)-2,3-dihydro-1H-benzimidazol-2-one]
The melting point of the first is lower: 167 to 168.5 °C for the first, 209 to 210 °C for the second.

Compared with `COC(=O)c1cnc2c(c1)n(Cc1ccc(OC)c(Cl)c1)c(=O)n2[C@H]1CC[C@H](O)CC1` [Example 2(98), 1-(3-Chloro-4-methoxybenzyl)-3-(trans-4-hydroxycyclohexyl)-6-methoxycarbonyl-2,3-dihydro-1H-imidazo[4,5-b]pyridin-2-one], `COc1ccc(Cn2c(=O)n([C@H]3CC[C@H](O)CC3)c3ncc(C(=O)O)cc32)cc1Cl` [Example 19(25), 6-Carboxy-1-(3-chloro-4-methoxybenzyl)-3-(trans-4-hydroxycyclohexyl)-2,3-dihydro-1H-imidazo[4,5-b]pyridin-2-one] is higher in melting point: 146 to 148 °C for the first, 262 to 262.5 °C for the second.

With `COc1ccc(Cn2c(=O)n([C@H]3CC[C@H](O)CC3)c3ccc([N+](=O)[O-])cc32)cc1OC` [Example 2(3), 3-(3,4-Dimethoxybenzyl)-1-(trans-4-hydroxycyclohexyl)-5-nitro-2,3-dihydro-1H-benzimidazol-2-one] the melting point was 175 to 176 °C.
